Results as given in PubChem BioAssay AID256 (DTP/NCI, 2004).
Several values for one entry are separate records, joined by “and”; a condition that tells them apart may be missing. Equal entries are not always repeated. Inconclusive results and toxic doses are left out. How the source made its calls: active means survival T/C of 150% or more; inactive means T/C below 125% in these data.

Test system: CD2F1 mice, L1210 leukemia ip, survival T/C
Assay: NCI In Vivo Anticancer Drug Screen. Data for tumor model L1210 Leukemia (intraperitoneal) in CD2F1 (CDF1) mice
Settings: endpoint: mean survival time, higher = longer survival
Method in brief: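 Vehicle-treated tumor-bearing mice served as controls (C) for compound-treated mice (T). Reported figure is T divided by C.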

[1] = dose: 100.0 mg/kg/injection, schedule: Q01DX001 (ip), vehicle: saline
[2] = dose: 100.0 mg/kg/injection, schedule: Q04DX003 (ip), vehicle: saline with Tween-80
[3] = dose: 200.0 mg/kg/injection, schedule: Q04DX003 (ip), vehicle: saline with Tween-80
[4] = dose: 400.0 mg/kg/injection, schedule: Q04DX003 (ip), vehicle: saline with Tween-80
[5] = dose: 200.0 mg/kg/injection, schedule: Q01DX001 (ip), vehicle: saline
[6] = dose: 400.0 mg/kg/injection, schedule: Q01DX001 (ip), vehicle: saline
[7] = dose: 12.5 mg/kg/injection, schedule: Q01DX009 (ip), vehicle: saline with Tween-80
[8] = dose: 25.0 mg/kg/injection, schedule: Q01DX009 (ip), vehicle: saline with Tween-80
[9] = dose: 50.0 mg/kg/injection, schedule: Q01DX009 (ip), vehicle: saline with Tween-80
[10] = dose: 100.0 mg/kg/injection, schedule: Q01DX009 (ip), vehicle: saline with Tween-80
[11] = dose: 200.0 mg/kg/injection, schedule: Q01DX009 (ip), vehicle: saline with Tween-80
[12] = dose: 400.0 mg/kg/injection, schedule: Q01DX009 (ip), vehicle: saline with Tween-80
[13] = dose: 100.0 mg/kg/injection, schedule: Q01DX009 (ip), vehicle: saline
[14] = dose: 100.0 mg/kg/injection, schedule: Q04DX003 (ip), vehicle: saline
[15] = dose: 200.0 mg/kg/injection, schedule: Q04DX003 (ip), vehicle: saline
[16] = dose: 100.0 mg/kg/injection, schedule: Q01DX001 (ip), vehicle: saline with Tween-80
[17] = dose: 200.0 mg/kg/injection, schedule: Q01DX001 (ip), vehicle: saline with Tween-80
[18] = dose: 400.0 mg/kg/injection, schedule: Q01DX001 (ip), vehicle: saline with Tween-80
[19] = dose: 400.0 mg/kg/injection, schedule: Q04DX003 (ip), vehicle: saline
[20] = dose: 100.0 mg/kg/injection, schedule: Q04DX002 (ip), vehicle: saline with Tween-80
[21] = dose: 200.0 mg/kg/injection, schedule: Q04DX002 (ip), vehicle: saline with Tween-80
[22] = dose: 400.0 mg/kg/injection, schedule: Q04DX002 (ip), vehicle: saline with Tween-80

Measured: T/C

C[N+](C)(C)CCC[n+]1ccc(CCn2ccc3ccccc32)cc1
inactive: [1] 124 % of control

CCCCCCC(O)CCCCCCCCCCC(=O)O (stereo unspecified)
inactive: [2] 98 % of control | [3] 92 % of control | [4] 90 % of control

NC(=O)c1nc(C2OC(CO)C(O)C2O)no1 (stereo unspecified)
inactive: dose: 12.5 mg/kg/injection, schedule: Q01DX005 (ip), vehicle: water 98 % of control | dose: 25.0 mg/kg/injection, schedule: Q01DX005 (ip), vehicle: water 98 % of control | dose: 50.0 mg/kg/injection, schedule: Q01DX005 (ip), vehicle: water 108 % of control | dose: 100.0 mg/kg/injection, schedule: Q01DX005 (ip), vehicle: water 98 % of control | dose: 200.0 mg/kg/injection, schedule: Q01DX005 (ip), vehicle: water 98 % of control

Cc1cc(O)c2c(c1O)C(=O)c1c(O)ccc(O)c1C2=O
inactive: [1] 95 % of control | [5] 95 % of control | [6] 97 % of control

NC(CCl)=NCC1C2CC3CC(C2)CC1C3 (stereo unspecified)
inactive: dose: 6.25 mg/kg/injection, schedule: Q04DX002 (ip), vehicle: saline 96 % of control | dose: 12.5 mg/kg/injection, schedule: Q04DX002 (ip), vehicle: saline 93 % of control | dose: 25.0 mg/kg/injection, schedule: Q04DX002 (ip), vehicle: saline 90 % of control | dose: 50.0 mg/kg/injection, schedule: Q04DX002 (ip), vehicle: saline 96 % of control | dose: 100.0 mg/kg/injection, schedule: Q01DX001 (ip), vehicle: Klucel (hydroxypropylcellulose) (HPC) 107 % of control | dose: 200.0 mg/kg/injection, schedule: Q01DX001 (ip), vehicle: Klucel (hydroxypropylcellulose) (HPC) 98 % of control

COC1(OC)C2C=CC1CC2
inactive: [7] 105 % of control | [8] 100 % of control | [9] 109 % of control | [10] 103 % of control | [11] 103 % of control | [12] 114 % of control

C#CCOC1CCCCO1 (stereo unspecified)
inactive: dose: 25.0 mg/kg/injection, schedule: Q01DX009 (ip), vehicle: saline 102 % of control | dose: 50.0 mg/kg/injection, schedule: Q01DX009 (ip), vehicle: saline 108 % of control | [13] 106 % of control

O=C(O)c1ccco1
inactive: [14] 94 % of control | [15] 95 % of control

O=C(Nc1nccs1)c1ccc([N+](=O)[O-])cc1
inactive: [16] 95 % of control | [17] 88 % of control | [18] 100 % of control

COC1=C(N)C(=O)c2nc(-c3nc(C(=O)O)c(C)c(-c4ccc(OC)c(OC)c4O)c3N)ccc2C1=O
inactive: dose: 0.25 mg/kg/injection, schedule: Q01DX009 (ip), vehicle: saline with Tween-80 117 % of control | dose: 0.5 mg/kg/injection, schedule: Q01DX009 (ip), vehicle: saline with Tween-80 100 % of control | dose: 0.5 mg/kg/injection, schedule: Q04DX003 (ip), vehicle: saline with Tween-80 118 % of control | dose: 1.0 mg/kg/injection, schedule: Q04DX003 (ip), vehicle: saline with Tween-80 105 % of control

CCCCNC(=O)Nc1ccc(C(=O)OCC(C)C)cc1
inactive: [10] 94 % of control | [2] 108 % of control | [11] 91 % of control | [3] 94 % of control | [12] 90 % of control | [4] 90 % of control

CCOC(=O)c1c(C)[nH]c(C(=O)C(N=O)C(=O)OCC)c1C (stereo unspecified)
inactive: [2] 101 % of control | [3] 97 % of control | [4] 97 % of control

Cc1cc(C)c2c(C#N)cn(-c3ccccc3Cl)c2n1
inactive: [14] 101 % of control | [15] 101 % of control | [19] 97 % of control

COc1ccc([NH-])cc1.COc1ccc([NH-])cc1.[Br][Pt+2][Br]
inactive: dose: 3.12 mg/kg/injection, schedule: Q04DX003 (ip), vehicle: distilled water + Tween-80 111 % of control | dose: 6.25 mg/kg/injection, schedule: Q04DX003 (ip), vehicle: distilled water + Tween-80 108 % of control | dose: 12.5 mg/kg/injection, schedule: Q04DX003 (ip), vehicle: distilled water + Tween-80 114 % of control | dose: 25.0 mg/kg/injection, schedule: Q04DX003 (ip), vehicle: distilled water + Tween-80 111 % of control | dose: 50.0 mg/kg/injection, schedule: Q04DX003 (ip), vehicle: distilled water + Tween-80 98 % of control

CC(=O)OCC(OC(C)=O)C1OC(OCc2ccccc2)C(OC(C)=O)C(OC(C)=O)C1OC(C)=O (stereo unspecified)
inactive: [16] 95 % of control | [17] 86 % of control | [18] 88 % of control

NNC(=O)Nc1nn[nH]n1
inactive: [20] 97 % of control | [21] 97 % of control | [22] 94 % of control

Nc1ncnc2c1[nH]c(=S)n2C1OC(CO)C(O)C1O (stereo unspecified)
inactive: [20] 107 % of control | [21] 103 % of control | [22] 100 % of control

CCCCOCCSc1ccccc1
inactive: [1] 96 % of control | [5] 93 % of control

CC1OC(O)C(O)C(O)C1O (stereo unspecified)
inactive: [1] 102 % of control | [5] 100 % of control | [6] 100 % of control

CCOc1cc(C(F)(F)F)nc2c3c(cc(OC)c12)CCCN3CC
inactive: [10] 98 % of control | [12] 90 % of control

CC(C(=O)c1ccccc1)N(C)c1ccccc1 (stereo unspecified)
inactive: [14] 107 % of control | [15] 100 % of control | [19] 102 % of control

O=C1OCCC1C(=O)C(O)(C(F)(F)F)C(F)(F)F (stereo unspecified)
inactive: dose: 100.0 mg/kg/injection, schedule: Q04DX003 (ip), vehicle: other 113 % of control | dose: 200.0 mg/kg/injection, schedule: Q04DX003 (ip), vehicle: other 87 % of control | dose: 400.0 mg/kg/injection, schedule: Q04DX003 (ip), vehicle: other 107 % of control

O=C1OC(c2ccccc2)=N/C1=C\c1cccc(O)c1
inactive: [10] 104 % of control | [11] 109 % of control | [12] 98 % of control

CC1CCCC/C1=N/O (stereo unspecified)
inactive: [14] 101 % of control | [15] 101 % of control | [19] 101 % of control

Cc1cccc(CCl)n1
inactive: [13] 98 % of control | [14] 101 % of control | dose: 200.0 mg/kg/injection, schedule: Q01DX009 (ip), vehicle: saline 90 % of control | [15] 95 % of control | [19] 87 % of control

N#CCC(=O)N/N=C/c1ccc2c(c1)CCC2
inactive: [7] 97 % of control | dose: 12.5 mg/kg/injection, schedule: Q04DX003 (ip), vehicle: saline with Tween-80 100 % of control | [8] 90 % of control | dose: 25.0 mg/kg/injection, schedule: Q04DX003 (ip), vehicle: saline with Tween-80 97 % of control | [9] 90 % of control | dose: 50.0 mg/kg/injection, schedule: Q04DX003 (ip), vehicle: saline with Tween-80 88 % of control

O=[N+]([O-])c1cc(S(=O)(=O)F)ccc1Cl
inactive: [7] 100 % of control | [8] 94 % of control | [9] 97 % of control and 103 % of control

C=C(Br)C(=O)O
inactive: [1] 93 % of control | [5] 98 % of control

COc1cccc(C(O)c2ccncc2)c1OC (stereo unspecified)
inactive: dose: 25.0 mg/kg/injection, schedule: Q01DX009 (ip), vehicle: water 96 % of control | dose: 50.0 mg/kg/injection, schedule: Q01DX009 (ip), vehicle: water 105 % of control | dose: 100.0 mg/kg/injection, schedule: Q01DX009 (ip), vehicle: water 98 % of control | dose: 200.0 mg/kg/injection, schedule: Q01DX009 (ip), vehicle: water 93 % of control | dose: 400.0 mg/kg/injection, schedule: Q01DX009 (ip), vehicle: water 91 % of control

O=C(Nc1ccccc1O)/C(Cl)=C/Cl
inactive: [10] 104 % of control

c1ccc2c3c([nH]c2c1)CN1CCNCC1C3 (stereo unspecified)
inactive: dose: 6.25 mg/kg/injection, schedule: Q01DX009 (ip), vehicle: saline with Tween-80 98 % of control | [7] 100 % of control | [8] 100 % of control
